Paper PMC4871512, “Drug-Based Lead Discovery: The Novel Ablative Antiretroviral Profile of Deferiprone in HIV-1-Infected Cells and in HIV-Infected Treatment-Naive Subjects of a Double-Blind, Placebo-Controlled, Randomized Exploratory Trial” (PLoS ONE, 2016)
Entries after “also recorded” stand apart in the source; their conditions may differ. Where two headings read alike, the source gives them in different places.

Assays:
[1] = Proof-of-concept trial: entry PK study, deferiprone in serum after the first oral dose; type: in vivo, human; conditions: for Cmax: human, serum
Excerpt: Eligible for enrollment were volunteers of both genders, between 18 and 60 years old, healthy or HIV-infected with CD4 count ≥ 300/mm^3, viral load of ≥ 10,000 copies/ml, and absence of active infectious disease; AIDS-defining condition; febrile illness; liver or kidney disease; hypersensitivity to test material; and medication requirement. The protocol involved a screening visit; a pharmacokinetic and antiretroviral study requiring admission to a specialized Phase I research unit for a week of on-drug treatment, with multiple blood draws from a peripheral vein after oral intake of the first deferiprone dose, […], and at least three repeat blood draws (first stage of protocol); an off-drug observation period of eight weeks, which comprised at least two repeat visits (second stage of protocol); and an exit visit. Enrollment complied with the applicable standard-of-care specified in the ‘Clinical Guidelines for the Management of HIV & AIDS in Adults and Adolescents’, National Department of Health, Republic of South Africa. Primary parameters included safety and tolerability (e.g. vital signs, laboratory variables, cardiac monitoring by ECG) and antiretroviral activity (e.g. RNA copies of HIV-1). Secondary parameters included pharmacokinetic variables (e.g. peak serum concentration) in serum, drawn from a peripheral vein at fixed times (0, 0.5, 1, 1.5, 2, 3, 4, 6, 9, 12) after the ingestion of the first dose on Day 1 of the study. The concentration of the nonconjugated, chelation-competent form of deferiprone in serum was determined by UV detection at 280 nm, after separation via reversed-phase HPLC under isocratic conditions. The lower limit of deferiprone quantitation was 1.466 μM, or 0.204 μg/ml. HIV-1 RNA was measured as described and used as log10-transformed parameter in all calculations.

[2] = tested on: HIV-1 clinical isolate in PBMCs; assay: HIV-1 RNA copy number (Amplicor HIV-1 Monitor) in supernatant of isolate-infected PBMC cultures; type: cell-based; conditions: for viral breakthrough during monotherapy: one week to one month
Method: (§1) Cell-free supernatants were used for p24 and HIV-1 RNA measurements. p24 core antigen in the supernatant was quantified by ELISA (Retrotek HIV-1 p24®; ZeptoMetrix Corp.; Buffalo, NY). HIV-1 RNA copy number in the supernatant of PBMC cultures and in plasma of trial subjects enrolled in the exploratory deferiprone trial was determined with a PCR-based and FDA-approved assay (Amplicor HIV-1 Monitor®; Roche Diagnostics Corp.; Indianapolis, IN). For clinical samples, the assay was used per the Standard Specimen Processing Procedure (sensitivity limit 400 copies/ml); for cell culture samples, the assay was used in both the Standard Specimen Processing and the UltraSensitive Specimen Processing Procedure (sensitivity limit 50 copies/ml). If not specified further, the term “log10” designates the amount of HIV-1 RNA in the dimensions [log10 / ml]. The Roche Amplicor HIV-1 DNA Test (Roche Diagnostics Corp.; Indianapolis, IN) was used for detection of HIV-1 DNA with the primer pair SK431/462, which amplifies a highly conserved region of the gag genome of HIV-1 subtype B DNA. Results are shown per the assay’s optical readings of a chromogenic reaction that relates absorbance at 450 nm to the HIV-1 DNA copy number and is calibrated by assay-internal copy controls (A450 < 0.350, HIV-1 DNA absent; A450 ≥ 3.0, HIV-1 DNA present in excess of 20 copies; A450 between 0.350 and 3.0, HIV-1 DNA copy number per copy controls). Apoptotic DNA fragmentation was quantified flow-cytometrically, using a terminal deoxynucleotide transferase dUTP nick end-labeling (TUNEL) assay (APO-BRDU™; Phoenix Flow Systems; San Diego, CA). All experiments and assays were performed at least in duplicate.
(§2) The antiretroviral activity of deferiprone was tested in primary cultures of PBMCs, infected in vitro with clinical isolate or mock-infected with clinical isolate-identical cell- and virus-free medium as described. Briefly, to approximate the bi-compartmental mode of HIV-1 infection in vivo, which comprises a cell-generative compartment that provides non-infected but HIV-1 susceptible cells, and an HIV-generative compartment in which they become infected, the cultures were replenished as described with freshly obtained uninfected primary cells and medium at regular intervals, assuring identical cell number in both the treated and control cultures by computerized trypan blue exclusion analysis (Vi-CELL™; Beckman Coulter, Miami, FL); deferiprone concentrations were adjusted as indicated. This model allowed for months-long monitoring of HIV-1 parameters in productively infected cultures.

[3] = tested on: HIV-infected cell lines and HIV-infected primary cells; conditions: cited from earlier work
[4] = tested on: HIV-1 clinical isolate in PBMCs; assay: p24 core antigen ELISA in supernatant of isolate-infected, long-term replenished primary cell cultures; type: cell-based; conditions: for p24, level relative to untreated controls: after two weeks, stably infected replenished primary cell cultures
Method: as §1, §2

[5] = after withdrawal of 100 μM deferiprone

Cc1c(O)c(=O)ccn1C [deferiprone, 3-hydroxy-1,2-dimethylpyridin-4-one]
subjects with serum cmax concentrations above the threshold (150 μM) ([1]; 99 mg group): 4 of 7 | subjects with serum cmax concentrations above the threshold (150 μM) ([1]; 150 mg group): 3 of 4 | Cmax ([1]; both sexes, oral, approximation from pharmacokinetic, viral load and tolerability findings, read-out: serum cmax an effective and tolerable regimen may have to achieve): 150 to 275 µM | Cmax ([1]; both sexes, po, 33 mg/kg, 99 mg group, first oral dose 33 mg/kg, read-out: cmax, range within group): 53 to 314 µM | Cmax ([1]; both sexes, po, 50 mg/kg, 150 mg group, first oral dose 50 mg/kg, read-out: cmax, range within group): 128 to 285 µM | Cmax ([1]; oral, 99 mg, Subject 2, 99 mg group, read-out: cmax): 314 µM | Cmax ([1]; oral, 150 mg, Subject 19, 150 mg group, read-out: cmax): 128 µM | Cmax ([1]; oral, 150 mg, Subject 22, 150 mg group, read-out: cmax): 285 µM | HIV-1 RNA decrease below the pre-treatment level of ≥10^6 copies/ml ([2]; 100 μM deferiprone, on-drug): one order of magnitude | HIV-1 RNA new steady state ([2]; 100 μM deferiprone, on-drug): ~10^5 copies/ml | viral breakthrough during monotherapy ([2]; 100 μM deferiprone, up to 35 days): did not elicit viral breakthrough; also recorded: did not allow viral breakthrough | viral breakthrough during monotherapy ([2]; 200 μM (supra-threshold) deferiprone, up to 35 days / 5 weeks): did not allow viral breakthrough; also recorded: did not elicit viral breakthrough; also recorded: neither allowed breakthrough | time to reach HIV-1 RNA ≤10^3 copies/ml ([2]; 200 μM deferiprone): 2–4 weeks | HIV-1 RNA decrease below its initial range ([2]; 200 μM deferiprone (Fig 1B)): at least three orders of magnitude | HIV-1 RNA level reached on-drug ([2]; 200 μM deferiprone, depending on combination of viral isolate and PBMCs): ≤ 10^3 copies/ml | decline of HIV-1 RNA production ([2]; 200 μM deferiprone, repeated experiments): 3 log | off-drug period in which HIV-1 RNA production failed to resume ([2]; after 200 μM deferiprone, replenished with fresh CD4+ lymphocytes (Fig 1)): at least 10 days | post-treatment period to reacquire the original level of ≥10^6 copies/ml [2, 5]: about 5 days | rate of HIV-1 RNA rebound to the pre-treatment range [2, 5]: +0.24 log10/ml/day | viral copy number ([2]; below 100 μM deferiprone): only marginally affected | HIV-1 RNA reduction relative to untreated cultures ([2]; off-drug after 200 μM deferiprone, apparently stable): ~ 4 log | HIV-1 inhibition in chronically infected cell lines ([3]; 200 μM deferiprone): near-maximal HIV-1 inhibition | ribosomal presence of gag mRNA, amount of intra- and extracellular p24, budding of viral particles ([3]; treated HIV-infected cells): suppress | p24 after escalation of concentration ([4]; 50 μM for 30 days followed by escalation to 200 μM (data not shown)): complete suppression of p24 within one week | p24 on-drug ([4]; 100 μM deferiprone): declined to the limit of detectability | p24, level relative to untreated controls ([4]; 100 μM deferiprone): ≤ 10% | p24, level relative to untreated controls ([4]; 200 μM deferiprone): ≤ 10% | extracellular p24 after deferiprone withdrawal ([4]; after 100 μM deferiprone): increased rapidly to levels higher than pre-treatment | p24 off-drug ([4]; after 200 μM deferiprone): did not rebound off-drug | p24 expression ([4]; below 100 μM deferiprone): only marginally affected
